Measurements from patent US10316041B2, “Spiro-lactam NMDA receptor modulators and uses thereof” (Apytinyx Inc., priority 2013, dated 2019).
Read-outs that look alike come from different tables or passages of the source.

What was measured:
[1] = tested on: Schaffer collateral-CA1 synapses in hippocampal slices; experiment: Long term potentiation in hippocampal slices; type: cell-based, rat
Experimental: Assays were conducted as described in Zhang et al. (Zhang, X. L., Sullivan, J. A., Moskal, J. R., Stanton, P. K., 2008. A NMDA receptor glycine site partial agonist, GLYX-13, simultaneously enhances LTP and reduces LTD at Schaffer collateral-CA1 synapses in hippocampus. Neuropharmacology. 55, 1238-50) Sprague-Dawley rats (12-18 days old; Taconic Farms) were deeply anesthetized with isoflurane and decapitated. Rat brains were removed rapidly, submerged in ice-cold artificial cerebrospinal fluid (ACSF, 2-4° C.), which contained (in mM): 124 NaCl, 4 KCl, 2 MgSO4, 2 CaCl2, 1.25 NaH2PO4, 26 NaHCO3, 10 glucose; at pH 7.4, gassed continuously with 95% O2/5% CO2). The rat brains were hemisected, the frontal lobes cut off, and individual hemispheres glued using cyanoacrylate adhesive onto a stage immersed in ice-cold ACSF gassed continuously with 95% O2/5% CO2 during slicing. Coronal slices (400 μm thick) were cut using a Vibratome (Leica VT1200S), and transferred to an interface holding chamber for incubation at room temperature for a minimum of one hour before transferring to a Haas-style interface recording chamber continuously perfused at 3 ml/min with oxygenated ACSF at 32±0.5° C. […] A bipolar stainless steel stimulating electrode (FHC Co.) was placed on Schaffer collateral-commissural fibers in CA3 stratum radiatum, and constant current stimulus intensity adjusted to evoke approximately half-maximal fEPSPs once each 30 s ([…]; 100 μs duration). fEPSP slope was measured before and after induction of LTP by linear interpolation from 20 to 80% of maximum negative deflection, and slopes confirmed to be stable to within ±10% for at least 15 min before commencing an experiment. […] The signals were recorded using a Multiclamp 700B amplifier and digitized with a Digidata 1322 (Axon Instruments, USA). Data were analyzed using pClamp software (version 9, Axon Instruments) on an IBM-compatible personal computer.

[2] = Porsolt test (floating time); type: in vivo; conditions: 3 mg/kg, IV, 1 hour post dose
[3] = target: T1, NMDA receptor (rat cortical membranes) (Rattus norvegicus, UniProt P35439); experiment: [3H]MK-801 binding assay (potentiation of binding); conditions: for Activity (%): maximal activity, % maximal stimulation (1 mM glycine)
T1 construct: from tissue; host or cells: rat cerebral cortex membranes
Experimental: Assays were conducted as described in Moskal et al. (Moskal, J. R., Kuo, A. G., Weiss, C., Wood, P. L., O'Connor Hanson, A., Kelso, S., Harris, R. B., Disterhoft, J. F., 2005. GLYX-13: a monoclonal antibody-derived peptide that acts as an N-methyl-D-aspartate receptor modulator. Neuropharmacology. 49, 1077-87) The potentiation of [^3H]MK-801 binding (5 nM; 22.5 Ci/mmol) to well washed rat cortical membranes (200 μg) was measured under non-equilibrium conditions (15 min @ 25° C.) in the presence of increasing concentrations of test compounds and 50 μM glutamate. Zero levels were determined in the absence of any glycine ligand and in the presence of 30 μM 5.7 DCKA. Maximal stimulation was measured in the presence of 1 mM glycine, and 50 μM glutamate was present in all samples. The facilitation of [^3H]MK-801 binding by tests compounds was calculated by using a 3 parameter log agonist vs. response equation (Graph pad Prism, USA) and potency (EC50 expressed in pM) and maximal activity (% maximal stimulation) were calculated for the test compound.

[4] = read-out: [3H] MK-801 binding assay: EC50
[5] = potentiation of [3H]MK-801 binding, 50 μM glutamate, rat cortical membranes, read-out: pEC50 (converted)

| Compound | EC50 [3, 4] [nM] | Activity (%) [3] [%] | EC50 [3, 5] [nM] | also measured |
| --- | --- | --- | --- | --- |
| CC(=O)N1CCCC12CN(CC(=O)N[C@H](C(N)=O)[C@@H](C)O)C2=O (single isomer, unassigned) [Compound 6S-FNL-7-F2] |  |  |  | Unified Activity Data: LTP Augmentation (Percent) ([1]; LTP Concentration 1 uM): 150%; Unified Activity Data: Porsolt Floating Time Inhibition (Percent) [2]: 80% |
| C[C@@H](O)[C@H](NC(=O)CN1CC2(CCCN2C(=O)OCc2ccccc2)C1=O)C(N)=O (stereo in doubt) [Compound 6S-FNL-4, Benzyl 2-(2-((1-amino-3-hydroxy-1-oxobutan-2-yl)amino)-2-oxoethyl)-1-oxo-2,5-diazaspiro [3.4] octane-5-carboxylate] | > 10000 |  |  |  |
| CC(=O)O[C@H](C)[C@H](NC(=O)CN1CC2(CCCN2)C1=O)C(N)=O (stereo partly drawn) [Compound 6S-FNL-3, (2R, 3S)-4-amino-4-oxo-3-(2-(1-oxo-2,5-diazaspiro [3.4]octan-2-yl)acetamido) butan-2-yl acetate] | 1690 |  |  |  |
| C[C@@H](O)[C@H](NC(=O)CN1CC2(CCCN2C(=O)c2ncnn2C)C1=O)C(N)=O (stereo partly drawn) [Compound C, (2S,3R)-3-hydroxy-2-(2-(5-(1-methyl-1H-1,2,4-triazole-5-carbonyl)-1-oxo-2,5-diazaspiro[3.4]octan-2-yl)acetamido) butanamide] |  | 10 | 0.007 |  |
| C[C@@H](O)[C@H](NC(=O)CN1CC2(CCCN2C(=O)c2ncnn2C)C1=O)C(=O)N1CCCC1 (stereo partly drawn) [Compound D, N-((2S, 3R)-3-hydroxy-1-oxo-1-(pyrrolidin-1-yl)butan-2-yl)-2-(5-(1-methyl-1H-1,2,4-triazole-5-carbonyl)-1-oxo-2,5-diazaspiro[3.4]octan-2-yl) acetamide] |  | 5 | 0.159 |  |
| CC(=O)N1CCCC12CN(CC(=O)N[C@H](C(N)=O)[C@@H](C)O)C2=O (stereo partly drawn) [Compound H, (2S,3R)-2-(2-(5-acetyl-1-oxo-2,5-diazaspiro[3.4]octan-2-yl)acetamido)-3-hydroxy butanamide] |  | 20 | 0.195 |  |
| (2R, 3S)-4-amino-3-(2-(5-(1-benzyl-5-methyl-1H-1, 2, 3-triazole-4-carbonyl)-1-oxo-2, 5-diazaspiro [3.4] octan-2-yl) acetamido)-4-oxobutan-2-yl acetate [Compound B] | 0.00727 | 47 | 0.006 | Unified Activity Data: LTP Augmentation (Percent) ([1]; LTP Concentration 0.1 uM): 110%; long-term potentiation after high frequency stimulation of Schaffer collateral-evoked NMDA e.p.s.c.s in CA1 pyramidal neurons ([1]; tested at 0.11 μM, FIG. 5): increased long-term potentiation; Unified Activity Data: Porsolt Floating Time Inhibition (Percent) [2]: 86% |
